In patent publication US5849731A, “Indole derivatives and medical application thereof” (Toray Industries, Inc., priority 1995, dated 1998) one finds IC50, Ke and ED50 data, which are given here for five compounds.

Like-named read-outs stand apart in the source and are kept apart here.

One assay addresses T1, δ-opioid (Mus musculus, UniProt P32300).
T1 construct: Each of the vas deferens isolated from the mice was hung in a Magnus tube; from tissue; host or cells: isolated vas deferens of male ddy strain mice
Put plainly: δ-opioid agonism: inhibition of electrically stimulated mouse vas deferens (MVD) contraction, antagonism by NTI. It is filed as biochemical, mouse (male ddy strain). Set-up: Ke: unit not given here. The conditions noted are these: for Ke: against NTI added 20 minutes before, Ke=[NTI Concentration]/[(IC50 ratio)-1]. As to the method: Using mouse vas deferens (MVD), antagonistic compounds were examined for antagonism against a δ-opioid agonist DPDPE, and agonistic compounds were examined for inhibitory activity against MVD contraction by electric stimulation, and for antagonism by a δ-opioid antagonist NTI.
Male ddy strain mice were used in this experiment. Each of the vas deferens isolated from the mice was hung in a Magnus tube which was filled with a Krebes-Henseleit solution (NaCl […]; KCl 4.7 mM; CaCl2 2.5 mM; KH2 PO4 1.1 mM; NaHCO3 25 mM; glucose 11 mM), and aerated with a gas of 5% carbon dioxide and 95% oxygen and maintained at 37° C. Electric stimulation was applied through upper and lower ring-shaped platinum electrodes at 0.1 Hz and 5.0 mS. Tissue contraction was recorded on a polygraph using an isometric transducer.
Initially, a sample compound was added in a cumulative manner to determine the IC50 value (concentration for 50% inhibition of contraction induced by electric stimulation). Next, […] was added to the system beforehand, and 20 minutes later, the sample compound was added in a cumulative manner. According to the above procedure, the ratio of the IC50 values of the sample compound in the presence of NTI to that in the absence of NTI was determined, and the Ke value was calculated in accordance with the following equation.
Ke=[NTI Concentration]/[(IC50 ratio)-1]

A further assay relates to acetic acid writhing. Put plainly: Analgesic action, acetic acid writhing test in mouse. It is filed as in vivo, mouse (ddY strain). The conditions noted are these: sc, dorsal-subcutaneous, 15 minutes before acetic acid, writhing reactions over 10 minutes. The protocol:
Evaluation of Analgesic Action by Acetic Acid Writhing Test in Mouse
Five-week-old ddY strain mice were subjected to this experiment. A 0.6% acetic acid solution was intraperitoneally administered at a volume of 0.1 ml/10 g·.body weight. Analgesic activity was evaluated with an index which was the number of writhing reactions occurring over 10 minutes from 10 minutes after administration. The drug to be evaluated was dorsal-subcutaneously administered 15 minutes before the administration of acetic acid.
For orientation: An intraperitoneal irritant provokes the stretching counted in writhing tests.

T1 sequence (P32300 whole entry): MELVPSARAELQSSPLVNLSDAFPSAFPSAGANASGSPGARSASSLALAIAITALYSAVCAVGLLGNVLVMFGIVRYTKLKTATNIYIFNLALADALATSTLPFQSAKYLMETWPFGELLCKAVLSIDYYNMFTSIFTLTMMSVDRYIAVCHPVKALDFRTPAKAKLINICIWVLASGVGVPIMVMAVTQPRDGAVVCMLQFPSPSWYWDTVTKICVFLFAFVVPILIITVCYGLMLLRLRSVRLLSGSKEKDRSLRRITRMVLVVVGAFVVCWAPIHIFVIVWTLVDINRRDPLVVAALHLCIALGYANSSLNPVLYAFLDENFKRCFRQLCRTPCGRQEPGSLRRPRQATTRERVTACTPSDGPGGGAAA

Regarding `Oc1ccc2c3c1O[C@H]1c4c(c5cccc6c5n4CCC6)C[C@@]4(O)[C@@H](C2)N(CCc2cccs2)CC[C@]314` [Compound 65, 17-(thiophene-2-ylethyl)-6,7-didehydro-4,5α-epoxy-3,14β-dihydroxy-1',7'-trimethylene-6,7,2',3'-indolomorphinan], on δ-opioid, 33.9 nM corresponded to half-maximal inhibition (IC50) and the Ke came out at 0.03.
Taken in the same sequence, the figures for `CN1CC[C@]23c4c5ccc(O)c4O[C@H]2c2c(c4cccc6c4n2CCC6)C[C@@]3(O)[C@H]1C5` [Compound 55, 17-Methyl-6,7-didehydro-4,5α-epoxy-3,14β-dihydroxy-1',7'-trimethylene-6,7,2',3'-indolomorphinan] were 18.2 nM and 0.21.
Take `C=CCCN1CC[C@]23c4c5ccc(O)c4O[C@H]2c2c(c4cccc6c4n2CCC6)C[C@@]3(O)[C@H]1C5` [Compound 28, 17-(3-butenyl)-6,7-didehydro-4,5α-epoxy-3,14β-dihydroxy-1',7'-trimethylene-6,7,2',3'-indolomorphinan]: on δ-opioid, half-maximal inhibition (IC50) was put at 15.8 nM and the Ke was found to be 0.05. This compound had a median effective dose (ED50) with acetic acid writhing of 16.7 mg/kg.
`Oc1ccc2c3c1O[C@H]1c4c(c5cccc6c5n4CCC6)C[C@@]4(O)[C@@H](C2)N(CC2CCC2)CC[C@]314` [Compound 56, 17-cyclobutylmethyl-6,7-didehydro-4,5α-epoxy-3,14β-dihydroxy-1',7'-trimethylene-6,7,2',3'-indolomorphinan]: on δ-opioid, the IC50 worked out at 2.96 nM and the Ke came out at 6.21.
Turning to `Oc1ccc2c3c1O[C@H]1c4c(c5cccc6c5n4CCC6)C[C@@]4(O)[C@@H](C2)N(CCc2ccccc2)CC[C@]314` [Compound 57, 17-phenethyl-6,7-didehydro-4,5α-epoxy-3,14β-dihydroxy-1',7'-trimethylene-6,7,2',3'-indolomorphinan], the Ke on δ-opioid is 0.06. The compound further displayed a 50% inhibitory concentration (IC50) at δ-opioid (concentration for 50% inhibition of MVD contraction induced by electric stimulation) of 9.71 nM.

As a reminder, the IC50 is the point on the concentration scale where inhibition reaches its midpoint. What is called ED50 is the dose that gives a 50% effect, or the effect in half of the subjects.
